{"source": "patent US8993635B2", "about": "“Method of increasing or maintaining the reproductive performance of sows” (Pork CRC Ltd, priority 2010, dated 2015)", "key": {"[1]": {"system": "large white first parity sows", "test": "Supplementary ractopamine in the lactation diet: sow weight loss and subsequent reproductive performance (Example 1)", "format": "in vivo, pig", "source_text": "Sixty large white first parity sows were allocated to one of two treatment groups (n=30 sows/treatment). One group (CONT) received a standard lactation diet (0.71 g available lysine/MJ digestible energy (DE)) throughout lactation, whilst the other group (RAC) received the standard lactation diet supplemented with ractopamine at 10 ppm from d 1-13 of lactation and 20 ppm from d 14 of lactation until mating. The amount of feed offered each day was stepped up gradually, reaching 5 kg/day by d 4 of lactation, and maintained at this level for the rest of lactation. Sows were weighed and P2 backfat measured on d 1, 14 and 20 of lactation, the litter size standardised to 9 piglets within 24 hours of lactation. Sows were weaned on d 21 of lactation, with boar exposure commencing 4 d after weaning and sows artificially inseminated twice at their first oestrus post-weaning. Subsequent reproductive performance of all sows was recorded: weaning-to-oestrus interval (WOI) and second litter size. Sows failing to epress eostrus within 10 d of weaning were deemed to be anoestrus and allocated a nominal weaning-to-oestrus interval of 15 d. A general analysis of variance model was used to study the effects of RAC supplementation on sow weight loss during lactation and subsequent reproductive performance."}, "[2]": {"system": "Large White/Landrace parity 1 sows", "test": "Paylean (ractopamine) treatment during first lactation: maternal catabolism, post-weaning fertility, piglet growth, milk composition (Example 2)", "format": "in vivo, pig", "details": "for MMD loss in lactation (mm): maximum eye muscle depth; for Live weight loss in lactation (kg) Days 1-7 / Live weight loss in lactation (kg) Days 8-14 / Live weight loss in lactation (kg) Days 15-20: parity 1 sows, ractopamine 10 ppm days 1-13, 20 ppm from day 14 until mating; for 2nd litter size: Born alive / 2nd litter size: Total born: second litter; for Proportion sows exhibiting oestrus: within 10 days of weaning", "method": "This experiment was conducted at the University of Adelaide's Pig and Poultry Production Institute (PPPI) at Roseworthy, South Australia, with approval from the animal ethics committees of Primary Industries and Resources South Australia and The University of Adelaide. The experiment used sixty Large White/Landrace parity 1 sows, and was conducted in four replicates: replicates one and two were run in October and November 2006, respectively (spring); and replicates three and four were run in March and April 2007, respectively (autumn).\nAt entry into the farrowing shed, Sixty Large White/Landrace first parity sows were weighed, and P2 backfat and maximum eye muscle depth (MMD) measured. Sows were then stratified according to both liveweight and body composition and allocated to one of two treatment groups (n=30 sows). One group (Control) received a standard lactation diet (0.71 g avail. lys/MJ DE) throughout lactation, whilst the other group (Ractopamine) received the same standard lactation diet but supplemented with ractopamine at 10 parts per million (ppm) from days 1-13 of lactation and 20 ppm from day 14 of lactation until mating. Dietary treatments commenced on day 1 of lactation (Day 0=first 24 hours after farrowing). During lactation, the amount of feed offered each day was stepped up gradually, reaching 6 kg/day by day 7 of lactation, and was fed over three meals per day, with daily feed disappearance recorded for each sow. Weaning took place 21 days after farrowing, and between weaning and first Al sows received 3 kg/day of their respective diets. Sows were weighed, and P2 backfat and MMD measured on days 1, 7, 14 and 20 of lactation. Gilts were weighed prior to being fed, and P2 backfat and MMD were measured over the last rib 65 mm down from the vertebrae by an experienced commercial operator using a 3.5 MHz linear probe (Ausonics Impact). Litter size was standardised to 9 piglets within 24 hours of farrowing, with piglets receiving only maternal milk as their feed source and weighed on days 1, 7, 13 and 20 of their mother's lactation. Maternal milk samples were collected on days 3, 13 and 20 of lactation and analysed for fat and protein content.\nAfter weaning, sows were housed in groups of three or four. Boar exposure commenced on the fourth day after weaning, consisted of 15 minutes of full, physical boar contact and was conducted in a detection mating area (DMA). At their first oestrus after weaning, sows two artificial inseminations (AIs), 24 hours apart.\nAll Als took place in the DMA, with fence-line contact with a boar during the procedure. Inseminations were performed as per standard industry practice using disposable spirette catheters, with each insemination consisting of an 80 ml dose of fresh, extended semen (3×10^9 spermatozoa per inseminate; <4 days old). Semen used for this experiment was purchased from a commercial artificial insemination collection centre (SABOR Pty. Ltd, Clare, South Australia). Sows not detected in oestrus by 10 days after weaning were described as anoestrous."}}, "note": "Marks after values point to notes of the source that are not given here."}
{"smiles": "CC(CCc1ccc(O)cc1)NCC(O)c1ccc(O)cc1", "note": "(racemic) [Ractopamine, ractopamine]", "values": [{"measurement": "weaning-to-oestrus interval (WOI)", "setting": "[1]; anoestrus sows allocated nominal 15 d", "value": "6.4 ± 0.63", "unit": "days"}, {"measurement": "Lactation weight loss (kg) Days 1-14", "setting": "[1]; first parity sows, ractopamine 10 ppm d 1-13, 20 ppm from d 14", "value": "4.6 ± 1.41", "unit": "kg"}, {"measurement": "Piglets born at second litter, Total born", "setting": "[1]; subsequent (second) litter", "value": "9.7 ± 0.54"}, {"measurement": "proportion of sows exhibiting oestrus within 10 d of weaning", "setting": "[1]; within 10 d of weaning", "value": "0.95±0.08"}, {"measurement": "Proportion mated sows pregnant", "setting": "[2]; after two AIs at first oestrus post-weaning", "value": 0.91}, {"measurement": "P2 backfat loss in lactation (mm)", "setting": "[2]", "value": "lost significantly less"}, {"measurement": "P2 backfat loss in lactation (mm)", "setting": "[2]; listed as Ractoparnine", "value": "2.44^b mm"}, {"measurement": "MMD loss in lactation (mm)", "setting": "[2]", "value": "similar"}, {"measurement": "MMD loss in lactation (mm)", "setting": "[2]; listed as Ractoparnine", "value": 2.1, "unit": "mm"}, {"measurement": "Live weight loss in lactation (kg) Days 1-7", "setting": "[2]", "value": "similar"}, {"measurement": "Live weight loss in lactation (kg) Days 8-14", "setting": "[2]", "value": "similar"}, {"measurement": "Live weight loss in lactation (kg) Days 15-20", "setting": "[2]", "value": "lost significantly less"}, {"measurement": "Live weight loss in lactation (kg) Days 1-7", "setting": "[2]; listed as Ractoparnine", "value": 2.43, "unit": "kg"}, {"measurement": "Live weight loss in lactation (kg) Days 8-14", "setting": "[2]; listed as Ractoparnine", "value": 2.98, "unit": "kg"}, {"measurement": "Live weight loss in lactation (kg) Days 15-20", "setting": "[2]; listed as Ractoparnine", "value": "0.66^b kg"}, {"measurement": "2nd litter size: Born alive", "setting": "[2]", "value": "tendency (P=0.064) for the number of piglets born alive-at the second litter to be higher"}, {"measurement": "2nd litter size: Total born", "setting": "[2]", "value": "numerical, but not significant, increase"}, {"measurement": "2nd litter size: Born alive", "setting": "[2]; listed as Ractoparnine", "value": "9.48**"}, {"measurement": "2nd litter size: Total born", "setting": "[2]; listed as Ractoparnine", "value": 9.66}, {"measurement": "Weaning-to-oestrus (d)", "setting": "[2]; sows not in oestrus within 10 days assigned nominal 15 days", "value": "similar"}, {"measurement": "Weaning-to-oestrus", "setting": "[2]; sows not in oestrus within 10 days assigned nominal 15 days, listed as Ractoparnine", "value": 6.39, "unit": "days"}, {"measurement": "Proportion sows exhibiting oestrus", "setting": "[2]", "value": "numerical, but not significant, reduction in the proportion of Control compared to Ractopamine sows"}, {"measurement": "Proportion sows exhibiting oestrus", "setting": "[2]; listed as Ractoparnine", "value": 0.95}]}
